# Reference: patent US20240374590A1, “COMPOSITIONS AND METHODS FOR TREATING CANCER” (A2A PHARMACEUTICALS, INC., priority 2021, published 2024)
# Assays:
# [1] = tested on: JIMT-1 human breast cancer cell line; assay: Cell viability assay (SRB) in JIMT-1; assay type: cell-based; settings: 72 hours after treatment, read-out: JIMT1 IC50
# Outline: (§1)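 JIMT-1 (3×10^3 cells/well) and HCT-116 (4×10^3 cells/well) cells were seeded and treated with inhibitors at several concentrations 24 h later. Viability was read by sulforhodamine B staining 72 h after treatment. JIMT-1 was grown in DMEM and HCT-116 in McCoy's 5A, both with FBS.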
# [2] = tested on: HCT-116 human colon carcinoma cell line; assay: Cell viability assay (SRB) in HCT-116; assay type: cell-based; settings: 72 hours after treatment, read-out: HCT116 IC50
# Outline: as §1
IC50 [1] [nM],IC50 [2] [nM],Compound
71,≥ 10000,"FC1CN(c2nccc(Nc3cc(-c4ccc(OC(F)F)cc4)n[nH]3)n2)C1 [Compound 246, N-(3-(4-(difluoromethoxy)phenyl)-1H-pyrazol-5-yl)-2-(3-fluoroazetidin-1-yl)pyrimidin-4-amine]"
142,≥ 10000,"CC1(C)CN(c2nccc(Nc3cc(-c4ccc(OC(F)F)cc4)n[nH]3)n2)C1 [Compound 247, N-(3-(4-(difluoromethoxy)phenyl)-1H-pyrazol-5-yl)-2-(3,3-dimethylazetidin-1-yl)pyrimidin-4-amine]"
1560,≥ 10000,"CC1(F)CN(c2nccc(Nc3cc(-c4ccc(OC(F)F)cc4)n[nH]3)n2)C1 [Compound 248, N-(3-(4-(difluoromethoxy)phenyl)-1H-pyrazol-5-yl)-2-(3-fluoro-3-methylazetidin-1-yl)pyrimidin-4-amine]"
305,≥ 10000,"FC(F)Oc1ccc(-c2cc(Nc3ccnc(N4CC(F)(F)C4)n3)[nH]n2)cc1 [Compound 249, 2-(3,3-difluoroazetidin-1-yl)-N-(3-(4-(difluoromethoxy)phenyl)-1H-pyrazol-5-yl)pyrimidin-4-amine]"
122,1260,"FC(F)Oc1ccc(-c2cc(Nc3ccnc(N4CCC(F)(F)C4)n3)[nH]n2)cc1 [Compound 252, N-(3-(4-(difluoromethoxy)phenyl)-1H-pyrazol-5-yl)-2-(3,3-difluoropyrrolidin-1-yl)pyrimidin-4-amine]"
148,1560,"FC(F)Oc1ccc(-c2cc(Nc3ccnc(N4CCC(F)(F)CC4)n3)[nH]n2)cc1 [Compound 253, N-(3-(4-(difluoromethoxy)phenyl)-1H-pyrazol-5-yl)-2-(4,4-difluoropiperidin-1-yl)pyrimidin-4-amine]"
279,312,"FC(F)Oc1ccc(-c2cc(Nc3ccnc(N4CCCOCC4)n3)[nH]n2)cc1 [Compound 255, N-(3-(4-(difluoromethoxy)phenyl)-1H-pyrazol-5-yl)-2-(1,4-oxazepan-4-yl)pyrimidin-4-amine]"
648,8980,"FC(F)Oc1ccc(-c2cc(Nc3ccnc(N4CC5CCC(C4)O5)n3)[nH]n2)cc1 [Compound 260, 2-(8-oxa-3-azabicyclo[3.2.1]octan-3-yl)-N-(3-(4-(difluoromethoxy)phenyl)-1H-pyrazol-5-yl)pyrimidin-4-amine]"
400,7200,"FC(F)Oc1ccc(-c2cc(Nc3ccnc(N4C[C@@H]5C[C@H]4CO5)n3)[nH]n2)cc1 [Compound 261, 2-((1S,4S)-2-oxa-5-azabicyclo[2.2.1]heptan-5-yl)-N-(3-(4-(difluoromethoxy)phenyl)-1H-pyrazol-5-yl)pyrimidin-4-amine]"
329,≥ 10000,"FC(F)Oc1ccc(-c2cc(Nc3ccnc(N4C[C@H]5C[C@@H]4CO5)n3)[nH]n2)cc1 [Compound 262, 2-((1R,4R)-2-oxa-5-azabicyclo[2.2.1]heptan-5-yl)-N-(3-(4-(difluoromethoxy)phenyl)-1H-pyrazol-5-yl)pyrimidin-4-amine]"
30,79,"C[C@H]1COCCN1c1nccc(Nc2cc(-c3ccc(OC(F)F)cc3)n[nH]2)n1 [Compound 263, (S)-N-(3-(4-(difluoromethoxy)phenyl)-1H-pyrazol-5-yl)-2-(3-methylmorpholino)pyrimidin-4-amine]"
127,302,"C[C@@H]1COCCN1c1nccc(Nc2cc(-c3ccc(OC(F)F)cc3)n[nH]2)n1 [Compound 264, (R)-N-(3-(4-(difluoromethoxy)phenyl)-1H-pyrazol-5-yl)-2-(3-methylmorpholino)pyrimidin-4-amine]"
13,46,"COc1ccc(-c2cc(N(C)c3ccnc(N4C[C@@H](C)O[C@@H](C)C4)n3)[nH]n2)c(F)c1 [Compound 275, 2-((2R,6S)-2,6-dimethylmorpholino)-N-(3-(2-fluoro-4-methoxyphenyl)-1H-pyrazol-5-yl)-N-methylpyrimidin-4-amine]"
204,269,"C[C@@H]1CN(c2nccc(N(C)c3cc(-c4ccc(OCF)cc4)n[nH]3)n2)C[C@H](C)O1 [Compound 277, 2-((2R,6S)-2,6-dimethylmorpholino)-N-(3-(4-(fluoromethoxy)phenyl)-1H-pyrazol-5-yl)-N-methylpyrimidin-4-amine]"
131,436,"COc1ccc(-c2cc(Nc3nc(N4C[C@@H](C)O[C@@H](C)C4)ncc3Cl)[nH]n2)c(F)c1 [Compound 281, 5-chloro-2-((2R,6S)-2,6-dimethylmorpholino)-N-(3-(2-fluoro-4-methoxyphenyl)-1H-pyrazol-5-yl)pyrimidin-4-amine]"
45,46,"COc1ccc(-c2cc(Nc3nc(N4C[C@@H](C)O[C@@H](C)C4)ncc3F)[nH]n2)c(F)c1 [Compound 282, 2-((2R,6S)-2,6-dimethylmorpholino)-5-fluoro-N-(3-(2-fluoro-4-methoxyphenyl)-1H-pyrazol-5-yl)pyrimidin-4-amine]"
1680,5220,"CC1COCC(C)N1c1ncc(F)c(Nc2cc(-c3ccc(OC(F)F)cc3)n[nH]2)n1 (stereo not drawn) [Compound 286, N-(3-(4-(difluoromethoxy)phenyl)-1H-pyrazol-5-yl)-2-(3,5-dimethylmorpholino)-5-fluoropyrimidin-4-amine]"
49,91,"C[C@@H]1CN(c2ncc(F)c(Nc3cc(-c4ccc(OC(F)F)cc4)n[nH]3)n2)C[C@H](C)O1 [Compound 287, N-(3-(4-(difluoromethoxy)phenyl)-1H-pyrazol-5-yl)-2-((2R,6S)-2,6-dimethylmorpholino)-5-fluoropyrimidin-4-amine]"
443,456,"C[C@@H]1CN(c2ncc(Cl)c(Nc3cc(-c4ccc(OC(F)F)cc4)n[nH]3)n2)C[C@H](C)O1 [Compound 288, 5-chloro-N-(3-(4-(difluoromethoxy)phenyl)-1H-pyrazol-5-yl)-2-((2R,6S)-2,6-dimethylmorpholino)pyrimidin-4-amine]"
180,371,"Fc1cnc(N2CCC2)nc1Nc1cc(-c2ccc(OC(F)F)cc2)n[nH]1 [Compound 289, 2-(azetidin-1-yl)-N-(3-(4-(difluoromethoxy)phenyl)-1H-pyrazol-5-yl)-5-fluoropyrimidin-4-amine]"
278,337,"CC1CCCN1c1ncc(F)c(Nc2cc(-c3ccc(OC(F)F)cc3)n[nH]2)n1 (stereo not drawn) [Compound 290, N-(3-(4-(difluoromethoxy)phenyl)-1H-pyrazol-5-yl)-5-fluoro-2-(2-methylpyrrolidin-1-yl)pyrimidin-4-amine]"
777,1710,"CC1COCCN1c1ncc(F)c(Nc2cc(-c3ccc(OC(F)F)cc3)n[nH]2)n1 (stereo not drawn) [Compound 291, N-(3-(4-(difluoromethoxy)phenyl)-1H-pyrazol-5-yl)-5-fluoro-2-(3-methylmorpholino)pyrimidin-4-amine]"
659,996,"C[C@@H]1CN(c2ncc(F)c(Nc3cc(-c4ccc(OC(F)F)cc4)n[nH]3)n2)C[C@@H](C)O1 [Compound 292, N-(3-(4-(difluoromethoxy)phenyl)-1H-pyrazol-5-yl)-2-((2R,6R)-2,6-dimethylmorpholino)-5-fluoropyrimidin-4-amine]"
255,332,"C[C@H]1CN(c2ncc(F)c(Nc3cc(-c4ccc(OC(F)F)cc4)n[nH]3)n2)C[C@H](C)O1 [Compound 293, N-(3-(4-(difluoromethoxy)phenyl)-1H-pyrazol-5-yl)-2-((2S,6S)-2,6-dimethylmorpholino)-5-fluoropyrimidin-4-amine]"
636,1140,"C[C@H]1COCCN1c1ncc(F)c(Nc2cc(-c3ccc(OC(F)F)cc3)n[nH]2)n1 [Compound 294, (S)-N-(3-(4-(difluoromethoxy)phenyl)-1H-pyrazol-5-yl)-5-fluoro-2-(3-methylmorpholino)pyrimidin-4-amine]"
≥ 10000,7510,"C[C@@H]1COCCN1c1ncc(F)c(Nc2cc(-c3ccc(OC(F)F)cc3)n[nH]2)n1 [Compound 295, (R)-N-(3-(4-(difluoromethoxy)phenyl)-1H-pyrazol-5-yl)-5-fluoro-2-(3-methylmorpholino)pyrimidin-4-amine]"
2350,2960,"C[C@@H]1CN(c2ncnc(Nc3cc(-c4ccc(OC(F)F)cc4)n[nH]3)n2)C[C@H](C)O1 [Compound 310, N-(3-(4-(difluoromethoxy)phenyl)-1H-pyrazol-5-yl)-4-((2R,6S)-2,6-dimethylmorpholino)-1,3,5-triazin-2-amine]"
12,24,"COc1ccc(-c2cc(Nc3ccnc(C4=CCOCC4)n3)[nH]n2)c(F)c1 [Compound 317, 2-(3,6-dihydro-2H-pyran-4-yl)-N-(3-(2-fluoro-4-methoxyphenyl)-1H-pyrazol-5-yl)pyrimidin-4-amine]"
319,293,"COc1ccc(-c2cc(Nc3ccnc(C4CCOCC4)n3)[nH]n2)c(F)c1 [Compound 318, N-(3-(2-fluoro-4-methoxyphenyl)-1H-pyrazol-5-yl)-2-(tetrahydro-2H-pyran-4-yl)pyrimidin-4-amine]"

Compound,IC50 [1] [nM],IC50 [2] [nM]
"FC(F)Oc1ccc(-c2cc(Nc3ccnc(N4C5CCC4COC5)n3)[nH]n2)cc1 [Compound 259, 2-(3-oxa-8-azabicyclo[3.2.1]octan-8-yl)-N-(3-(4-(difluoromethoxy)phenyl)-1H-pyrazol-5-yl)pyrimidin-4-amine]",65,≥ 10000
